From paper PMC6315541, “Nile Tilapia Derived Antimicrobial Peptide TP4 Exerts Antineoplastic Activity Through Microtubule Disruption” (Marine Drugs, 2018)

What was measured:
[1] = tested on: α-Tubulin protein level in A549 cells; assay: Western blot of α-Tubulin protein level in A549 cells; format: cell-based, human; conditions: TP4 vs vehicle, Figure 2B
Method: (§1) To examine whether TP4 may affect microtubule dynamics, A549 cells were treated with TP4, and cytoskeletal elements were analyzed by immunocytochemistry (ICC). […] We then asked whether TP4 treatment may influence tubulin protein levels by performing Western blots on lysates from A549 cells that had been treated with vehicle or TP4. […] We next conducted a microtubule regrowth assay to further address whether TP4 may disrupt microtubule polymerization. TP4 was applied to A549 cells that had been treated with or without Nocodazole (20 μM) treatment for 6 h, which completely depolymerizes the microtubule network. The repolymerization of microtubules was then initialized by the addition of fresh recovery medium, and regrowth was analyzed by ICC.
(§2) Figure 2 TP4 disrupts the microtubule network in cancer cells. (A) Cells were stained for α-Tubulin and F-actin. Hoechst33342 was used to stain nuclei. Arrows indicate cells with negative α-Tubulin staining. Bar: 20 μm. (B) Total lysates from cells with mock (labeled C) or TP4 treatment (labeled T) were analyzed by Western blot using antibodies against GAPDH and α-Tubulin. Quantification of the α-Tubulin signal normalized to GAPDH is shown. Mr is the molecular weight. […] Bar: 20 μm (D) Quantification of the number of cells with Tubulin-positive and Tubulin-negative staining. […]

[2] = tested on: Pure tubulins (microtubule polymerization); assay: In vitro tubulin polymerization assay; format: biochemical
Method: To test the models predicted by the molecular docking analysis, TP4 mutants were generated by substitution of Phe1, Ile16, and Arg23 with either Gly or Ala (mutant names and sequences are provided in Figure 5A), and the mutants were analyzed for their interaction with α-Tubulin. The sequence of TP4 is expected to form an α-helix, see Supplementary Figure S1A.
Figure 5 TP4 inhibits microtubule polymerization. (A) Sequences of the TP4 wild type (WT) and mutants. Letters shown in red indicate substituted amino acids. (B,C) Dynamic measurement of the microtubule polymerization. Pure tubulins were assembled in the presence of TP4 (WT), TP4 mutants (MT1-6). H2O, paclitaxel, and nocodazole served as vehicle, positive, and negative controls, respectively.
The Microtubule/Tubulin In Vivo Assay (Cytoskeleton, Inc., Denver, CO, USA) was performed using the “inhibitor condition” provided in the manufacturer’s instructions. Microtubule regrowth was assayed as described previously. Briefly, cells with or without 3 h, 10 μg mL^−1 TP4 treatment were incubated with nocodazole (20 μM) for 6 h at 37 °C. After washing with warm culture medium, cells were incubated for a further 0, 10, or 30 minutes. Fixed cells were stained with the α-Tubulin antibody and for F-actin. Confocal images were acquired on an FV3000 microscope (Olympus Corp., Tokyo, Japan).

[3] = tested on: microtubule regrowth in A549 cells; assay: Microtubule regrowth assay after nocodazole washout; format: cell-based, human; conditions: 10 μg mL^−1 TP4 3 h, nocodazole 20 μM 6 h, washout and recovery medium, α-Tubulin ICC, N = 3
Method: as §1, §2

## FIHHIIGGLFSAGKAIHRLIRRRRR [TP4, synthesized Nile tilapia-derived antimicrobial peptide, Tilapia piscidin 4]
[1]
  level of α-Tubulin protein (normalized to GAPDH): not significantly affected
[2]; 10 μg mL^−1 peptide, dynamic measurement, Figure 5B
  effect on microtubule polymerization: sufficient to disrupt microtubule polymerization
[2]; 20 μg mL^−1 peptide, compared to controls, Figure 5C
  effect on microtubule polymerization: completely inhibited microtubule polymerization
[3]
  cells with microtubule regrowth defects: increased portion of TP4-treated cells had microtubule regrowth defects
